Source: patent US10471094B2, “Methods for reducing ischemia-reperfusion injury via targeted control of blood gases” (Cedars-Sinai Medical Center, priority 2013, dated 2019)

System: Canines
Experiment: Canine ischemia/reperfusion (I/R) protocol, 3 hours no-flow LAD occlusion then reperfusion, MRI at week 8
Type: in vivo
Source text: Canines (n=9) underwent left thoracotomy at the 4th intercostal space and a hydraulic occluder was secured around the left-anterior descending coronary artery after the first principal diagonal. Subsequently a Doppler flow probe was affixed distal to the hydraulic occluder and animals were allowed to recover for 7 days. Following recovery, animals were subjected to ischemia/reperfusion (I/R) protocol and studied with magnetic resonance imaging. The ischemia protocol consisted of inflicting no-flow ischemia by inflating the hydraulic occlude (confirmed by the Doppler flow velocity) for 3 hours. Subsequently all animals were reperfused by deflation of the hydraulic occluder.

[1] = 100% O2 versus room air during reperfusion, week 8

With O=O [100% O2, oxygen] the “chronic scar size larger versus animals breathing room air during reperfusion” value [1] was “approximately 25%”, the “left ventricular ejection fraction (LVEF) reduced versus animals breathing room air during reperfusion” value [1] was 12% and the “LVEF at week 8 post MI” value (gas breathed during reperfusion, 3.0 T MRI, week 8 post I/R injury, left-ventricular ejection fraction) was 39.7 +/− 4.9. The “Scar Volume at week 8 post MI (% LV)” value (gas breathed during reperfusion, 3.0 T MRI, week 8 post I/R injury, scar volume as percentage of left ventricular volume) was 15.0 +/− 3.8 % LV.
